Results as given in ChEMBL document CHEMBL4184146, “Interrogating the Roles of Post-Translational Modifications of Non-Histone Proteins” (J Med Chem, 2018).
Each block holds one molecule with its values, some of them ahead of it.

How the values were obtained:
[1] = target: T1, Geranylgeranyl transferase type I (Homo sapiens, UniProt P49354+P53609); assay: Inhibition of GGTase1 (unknown origin) expressed in mouse NIH-3T3 cells transfected with k-Ras4B assessed as decrease in geranylgeranylation of k-Ras4B after 24 hrs by chemoluminescence assay; assay type: cell-based
[2] = target: T2, Protein farnesyltransferase (Homo sapiens, UniProt P49354+P49356); assay: Inhibition of FTase (unknown origin) expressed in mouse NIH-3T3 cells transfected with human H-Ras assessed as decrease in farnesylation of H-Ras after 24 hrs by chemoluminescence assay; assay type: cell-based
[3] = target: T3, Glycylpeptide N-tetradecanoyltransferase (Neosartorya fumigata (strain ATCC MYA-4609 / Af293 / CBS 101355 / FGSCA1100) (Aspergillus fumigatus), UniProt Q9UVX3); assay: Inhibition of recombinant Aspergillus fumigatus NMT (Gln86 to Leu492 residues) expressed in Escherichia coli BL21(DE3) pLysS cells using [3H]-myristoyl coenzyme A/CAP5.5 as substrate after 20 mins by scintillation proximity assay
T3 sequence (Q9UVX3 whole entry): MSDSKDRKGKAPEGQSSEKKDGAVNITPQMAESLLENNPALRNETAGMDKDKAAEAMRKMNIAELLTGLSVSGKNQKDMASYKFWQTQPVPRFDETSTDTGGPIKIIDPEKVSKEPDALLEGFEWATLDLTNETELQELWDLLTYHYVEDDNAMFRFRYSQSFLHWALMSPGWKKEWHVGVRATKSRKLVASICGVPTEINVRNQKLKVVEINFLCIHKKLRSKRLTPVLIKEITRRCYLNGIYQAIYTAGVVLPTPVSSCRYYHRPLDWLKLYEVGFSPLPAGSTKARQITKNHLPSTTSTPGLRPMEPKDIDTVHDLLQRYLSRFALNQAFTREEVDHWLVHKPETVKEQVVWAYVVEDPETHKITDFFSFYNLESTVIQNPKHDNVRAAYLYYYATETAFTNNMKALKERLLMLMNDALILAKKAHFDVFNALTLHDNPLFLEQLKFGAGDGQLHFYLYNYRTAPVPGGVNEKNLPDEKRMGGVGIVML

[4] = target: geranylgeranyltransferase type-I (Rattus norvegicus, UniProt P53610+Q04631); assay: Inhibition of rat brain GGTase1 assessed as decrease in transfer of [3H]H]geranylgeranyl from [3H]geranylgeranyl PPi to H-Ras-CVLL after 30 mins by liquid scintillation counting method
[5] = target: T2, Protein farnesyltransferase; assay: Inhibition of FTase (unknown origin) using H-ras as substrate; assay type: protein-complex assay
[6] = target: T2, Protein farnesyltransferase; assay: Inhibition of FTase (unknown origin); assay type: protein-complex assay
[7] = target: T1, Geranylgeranyl transferase type I; assay: Inhibition of GGTase1 (unknown origin); assay type: protein-complex assay
[8] = target: T1, Geranylgeranyl transferase type I; assay: Inhibition of GGTase1 isolated from human Burkitt's lymphoma cells assessed as decrease in transfer of [3H]H]geranylgeranyl from [3H]geranylgeranyl PPi to H-Ras-CVLL
[9] = target: T2, Protein farnesyltransferase; assay: Inhibition of FTase isolated from human Burkitt's lymphoma cells assessed as decrease in transfer of [3H]farnesyl from [3H]farnesyl PPi to H-Ras-CVLS

IC50 [1]: 2000 nM
IC50 [2]: > 30000 nM
Structure (SMILES): COC(=O)[C@H](CC(C)C)NC(=O)c1ccc(NC[C@@H](N)CS)cc1-c1ccccc1

Structure (SMILES): Cc1c(NS(=O)(=O)c2c(Cl)cc(-c3ccnc(N4CCNCC4)c3)cc2Cl)c(CC(C)C)nn1C [ZELENIRSTAT]
IC50 [3]: 12 nM

Structure (SMILES): NC(=O)N1CCC(CC(=O)N2CCC([C@H]3c4ncc(Br)cc4CCc4cc(Cl)cc(Br)c43)CC2)CC1 [LONAFARNIB]
IC50 [4]: > 1000 nM

IC50 [5]: 0.8 nM
Structure (SMILES): O=C(c1cn(Cc2cncn2Cc2ccc(Br)cc2)cc1-c1cccc2ccccc12)N1CCOCC1

Structure (SMILES): COC(=O)[C@H](CCSC)NC(=O)CN1C[C@H](N(C)C(=O)[C@H](N)CS)N=C(c2ccccc2)c2ccccc21
IC50 [6]: 41 nM
IC50 [7]: > 1000 nM

IC50 [8]: 50 nM
IC50 [9]: 200 nM
Structure (SMILES): CC(C)C[C@H](NC(=O)c1ccc(NC[C@@H](N)CS)cc1-c1cccc2ccccc12)C(=O)O
